From the kinase profiling compilation of Christmann-Franck et al. (2016)

Columns and labels:
GSK3B (human) = GSK3B (human) (UniProt P49841); assay: radiometric filter-binding kinase assay
MAP3K7 (human) = MAP3K7 (human) (UniProt O43318); assay: radiometric filter-binding kinase assay
MAPK8 (human) = MAPK8 (human) (UniProt P45983); assay: radiometric filter-binding kinase assay
BRAF (human) = BRAF (human) (UniProt P15056); assay: KINOMEscan competition binding; details: compound 1.0 µM
CAMK2B (human) = CAMK2B (human) (UniProt Q13554); assay: KINOMEscan competition binding; details: compound 1.0 µM
CAMKK2 (human) = CAMKK2 (human) (UniProt Q96RR4); assay: KINOMEscan competition binding; details: compound 1.0 µM
CDC42BPA (human) = CDC42BPA (human) (UniProt Q5VT25); assay: KINOMEscan competition binding; details: compound 1.0 µM
CDK2 (human) = CDK2 (human) (UniProt P24941); assay: KINOMEscan competition binding; details: compound 1.0 µM
CDK4 CCND1 (human) = CDK4 CCND1 (human) (UniProt P11802+P24385); assay: KINOMEscan competition binding; details: compound 1.0 µM
CDKL3 (human) = CDKL3 (human) (UniProt Q8IVW4); assay: KINOMEscan competition binding; details: compound 1.0 µM
CLK1 (human) = CLK1 (human) (UniProt P49759); assay: KINOMEscan competition binding; details: compound 1.0 µM
DAPK3 (human) = DAPK3 (human) (UniProt O43293); assay: KINOMEscan competition binding; details: compound 1.0 µM
DCLK1 (human) = DCLK1 (human) (UniProt O15075); assay: KINOMEscan competition binding; details: compound 1.0 µM
EGFR (human) = EGFR (human) (UniProt P00533); assay: KINOMEscan competition binding; details: compound 1.0 µM
[1] = system: EGFR (human), P00533 [G719S]; assay: KINOMEscan competition binding; details: compound 1.0 µM
[2] = system: EGFR (human), P00533 [L858R]; assay: KINOMEscan competition binding; details: compound 1.0 µM
[3] = system: EGFR (human), P00533 [T790M]; assay: KINOMEscan competition binding; details: compound 1.0 µM
EPHA7 (human) = EPHA7 (human) (UniProt Q15375); assay: KINOMEscan competition binding; details: compound 1.0 µM
ERBB3 (human) = ERBB3 (human) (UniProt P21860); assay: KINOMEscan competition binding; details: compound 1.0 µM
FES (human) = FES (human) (UniProt P07332); assay: KINOMEscan competition binding; details: compound 1.0 µM
INSRR (human) = INSRR (human) (UniProt P14616); assay: KINOMEscan competition binding; details: compound 1.0 µM
[4] = molecular target: JAK1 JH2 pseudokinase (human) (UniProt P23458); assay: KINOMEscan competition binding; details: compound 1.0 µM
[5] = system: KIT (human), P10721 [A829P]; assay: KINOMEscan competition binding; details: compound 1.0 µM
MAK (human) = MAK (human) (UniProt P20794); assay: KINOMEscan competition binding; details: compound 1.0 µM
MAP2K2 (human) = MAP2K2 (human) (UniProt P36507); assay: KINOMEscan competition binding; details: compound 1.0 µM
MAP2K5 (human) = MAP2K5 (human) (UniProt Q13163); assay: KINOMEscan competition binding; details: compound 1.0 µM
MAP4K3 (human) = MAP4K3 (human) (UniProt Q8IVH8); assay: KINOMEscan competition binding; details: compound 1.0 µM
MAPK14 (human) = MAPK14 (human) (UniProt Q16539); assay: KINOMEscan competition binding; details: compound 1.0 µM
MET (human) = MET (human) (UniProt P08581); assay: KINOMEscan competition binding; details: compound 1.0 µM
MST4 (human) = MST4 (human) (UniProt Q9P289); assay: KINOMEscan competition binding; details: compound 1.0 µM
PDGFRA (human) = PDGFRA (human) (UniProt P16234); assay: KINOMEscan competition binding; details: compound 1.0 µM
PIK3C2G (human) = PIK3C2G (human) (UniProt O75747); assay: KINOMEscan competition binding; details: compound 1.0 µM
PIP4K2B (human) = PIP4K2B (human) (UniProt P78356); assay: KINOMEscan competition binding; details: compound 1.0 µM
PRKAA2 (human) = PRKAA2 (human) (UniProt P54646); assay: KINOMEscan competition binding; details: compound 1.0 µM
ROCK2 (human) = ROCK2 (human) (UniProt O75116); assay: KINOMEscan competition binding; details: compound 1.0 µM
RPS6KA1 KD1 (human) = RPS6KA1 KD1 (human) (UniProt Q15418); assay: KINOMEscan competition binding; details: compound 1.0 µM
SBK1 (human) = SBK1 (human) (UniProt Q52WX2); assay: KINOMEscan competition binding; details: compound 1.0 µM
STK36 (human) = STK36 (human) (UniProt Q9NRP7); assay: KINOMEscan competition binding; details: compound 1.0 µM
TNK1 (human) = TNK1 (human) (UniProt Q13470); assay: KINOMEscan competition binding; details: compound 1.0 µM
TNNI3K (human) = TNNI3K (human) (UniProt Q59H18); assay: KINOMEscan competition binding; details: compound 1.0 µM
TXK (human) = TXK (human) (UniProt P42681); assay: KINOMEscan competition binding; details: compound 1.0 µM
ULK2 (human) = ULK2 (human) (UniProt Q8IYT8); assay: KINOMEscan competition binding; details: compound 1.0 µM

Chain of PDGFRA (human) (P16234 whole entry, looked up): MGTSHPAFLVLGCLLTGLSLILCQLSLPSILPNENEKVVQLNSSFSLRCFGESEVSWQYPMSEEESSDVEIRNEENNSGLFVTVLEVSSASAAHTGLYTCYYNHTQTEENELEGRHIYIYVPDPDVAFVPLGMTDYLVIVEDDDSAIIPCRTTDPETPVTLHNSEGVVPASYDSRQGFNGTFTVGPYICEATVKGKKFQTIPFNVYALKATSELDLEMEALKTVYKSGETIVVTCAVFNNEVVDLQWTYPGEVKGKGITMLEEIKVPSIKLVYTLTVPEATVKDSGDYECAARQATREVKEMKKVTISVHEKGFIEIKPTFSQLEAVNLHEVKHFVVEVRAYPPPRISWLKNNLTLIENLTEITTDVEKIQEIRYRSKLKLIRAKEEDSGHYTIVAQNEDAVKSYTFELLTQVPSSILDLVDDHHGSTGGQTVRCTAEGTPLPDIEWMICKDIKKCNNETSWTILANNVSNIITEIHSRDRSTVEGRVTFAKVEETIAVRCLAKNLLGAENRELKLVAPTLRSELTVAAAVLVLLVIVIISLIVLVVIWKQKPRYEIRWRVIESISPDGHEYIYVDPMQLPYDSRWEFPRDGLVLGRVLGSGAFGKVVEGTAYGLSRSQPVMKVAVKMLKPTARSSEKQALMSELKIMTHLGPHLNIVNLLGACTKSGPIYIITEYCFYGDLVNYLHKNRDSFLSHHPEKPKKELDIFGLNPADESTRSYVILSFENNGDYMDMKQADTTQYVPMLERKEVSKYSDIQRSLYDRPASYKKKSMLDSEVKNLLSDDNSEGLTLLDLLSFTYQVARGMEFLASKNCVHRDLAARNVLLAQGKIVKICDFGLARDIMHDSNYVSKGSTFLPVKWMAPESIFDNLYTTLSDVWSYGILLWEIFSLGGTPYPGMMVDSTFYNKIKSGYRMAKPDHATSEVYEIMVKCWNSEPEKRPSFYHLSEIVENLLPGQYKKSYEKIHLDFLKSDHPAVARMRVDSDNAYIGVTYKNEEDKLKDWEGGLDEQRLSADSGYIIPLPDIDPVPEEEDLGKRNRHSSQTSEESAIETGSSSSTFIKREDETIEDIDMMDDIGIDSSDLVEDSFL
Chain of CAMKK2 (human) (Q96RR4 whole entry, looked up): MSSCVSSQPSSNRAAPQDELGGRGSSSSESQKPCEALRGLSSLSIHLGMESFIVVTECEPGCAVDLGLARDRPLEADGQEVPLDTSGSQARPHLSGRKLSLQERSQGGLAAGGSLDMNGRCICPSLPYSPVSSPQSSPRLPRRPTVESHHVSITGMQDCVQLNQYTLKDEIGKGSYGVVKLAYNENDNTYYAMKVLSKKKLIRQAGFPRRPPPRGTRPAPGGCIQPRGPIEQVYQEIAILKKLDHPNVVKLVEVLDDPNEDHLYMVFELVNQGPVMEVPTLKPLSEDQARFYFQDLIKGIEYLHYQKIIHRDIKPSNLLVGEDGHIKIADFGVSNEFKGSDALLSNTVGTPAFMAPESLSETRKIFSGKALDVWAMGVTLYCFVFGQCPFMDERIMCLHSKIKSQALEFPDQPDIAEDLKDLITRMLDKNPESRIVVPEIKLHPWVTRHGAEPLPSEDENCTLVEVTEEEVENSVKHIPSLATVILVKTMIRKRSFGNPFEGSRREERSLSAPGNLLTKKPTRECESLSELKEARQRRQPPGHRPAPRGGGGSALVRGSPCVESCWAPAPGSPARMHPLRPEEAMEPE
Chain of EPHA7 (human) (Q15375 whole entry, looked up): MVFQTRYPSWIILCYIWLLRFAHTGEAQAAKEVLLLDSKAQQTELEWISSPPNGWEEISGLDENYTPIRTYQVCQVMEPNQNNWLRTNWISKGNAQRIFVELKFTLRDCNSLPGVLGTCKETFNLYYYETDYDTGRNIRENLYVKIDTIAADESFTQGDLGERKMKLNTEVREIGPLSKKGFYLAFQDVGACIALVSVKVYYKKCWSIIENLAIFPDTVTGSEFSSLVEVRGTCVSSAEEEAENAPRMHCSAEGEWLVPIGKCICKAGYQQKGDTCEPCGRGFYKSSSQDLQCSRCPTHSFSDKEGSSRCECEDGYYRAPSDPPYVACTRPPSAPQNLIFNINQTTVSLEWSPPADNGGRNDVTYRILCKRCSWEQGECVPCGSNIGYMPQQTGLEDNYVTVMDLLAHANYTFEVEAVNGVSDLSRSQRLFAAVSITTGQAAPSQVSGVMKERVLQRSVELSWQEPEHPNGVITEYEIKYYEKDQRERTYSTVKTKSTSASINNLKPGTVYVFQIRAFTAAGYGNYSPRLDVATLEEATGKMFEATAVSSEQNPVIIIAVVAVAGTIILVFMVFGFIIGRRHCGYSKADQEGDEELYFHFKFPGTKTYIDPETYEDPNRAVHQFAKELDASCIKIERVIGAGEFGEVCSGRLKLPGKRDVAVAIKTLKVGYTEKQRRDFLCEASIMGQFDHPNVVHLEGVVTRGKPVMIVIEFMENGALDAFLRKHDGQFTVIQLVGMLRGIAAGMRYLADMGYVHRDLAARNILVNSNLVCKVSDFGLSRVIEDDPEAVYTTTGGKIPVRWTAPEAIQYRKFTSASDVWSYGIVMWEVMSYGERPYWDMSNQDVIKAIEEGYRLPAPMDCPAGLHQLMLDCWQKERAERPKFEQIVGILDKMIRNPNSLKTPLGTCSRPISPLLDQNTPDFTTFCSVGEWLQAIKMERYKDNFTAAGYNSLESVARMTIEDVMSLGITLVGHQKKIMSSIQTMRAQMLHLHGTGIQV
Chain of MAPK14 (human) (Q16539 whole entry, looked up): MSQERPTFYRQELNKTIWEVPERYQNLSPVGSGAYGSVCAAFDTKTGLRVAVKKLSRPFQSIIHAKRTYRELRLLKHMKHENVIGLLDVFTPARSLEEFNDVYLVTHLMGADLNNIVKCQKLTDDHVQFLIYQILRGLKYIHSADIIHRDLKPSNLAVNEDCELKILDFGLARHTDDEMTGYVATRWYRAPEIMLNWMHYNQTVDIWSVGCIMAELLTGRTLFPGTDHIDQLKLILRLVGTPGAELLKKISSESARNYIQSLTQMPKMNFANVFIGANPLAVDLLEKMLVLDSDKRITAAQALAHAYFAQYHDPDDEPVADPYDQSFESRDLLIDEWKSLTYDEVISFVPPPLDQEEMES
Chain of PIK3C2G (human) (O75747 whole entry, looked up): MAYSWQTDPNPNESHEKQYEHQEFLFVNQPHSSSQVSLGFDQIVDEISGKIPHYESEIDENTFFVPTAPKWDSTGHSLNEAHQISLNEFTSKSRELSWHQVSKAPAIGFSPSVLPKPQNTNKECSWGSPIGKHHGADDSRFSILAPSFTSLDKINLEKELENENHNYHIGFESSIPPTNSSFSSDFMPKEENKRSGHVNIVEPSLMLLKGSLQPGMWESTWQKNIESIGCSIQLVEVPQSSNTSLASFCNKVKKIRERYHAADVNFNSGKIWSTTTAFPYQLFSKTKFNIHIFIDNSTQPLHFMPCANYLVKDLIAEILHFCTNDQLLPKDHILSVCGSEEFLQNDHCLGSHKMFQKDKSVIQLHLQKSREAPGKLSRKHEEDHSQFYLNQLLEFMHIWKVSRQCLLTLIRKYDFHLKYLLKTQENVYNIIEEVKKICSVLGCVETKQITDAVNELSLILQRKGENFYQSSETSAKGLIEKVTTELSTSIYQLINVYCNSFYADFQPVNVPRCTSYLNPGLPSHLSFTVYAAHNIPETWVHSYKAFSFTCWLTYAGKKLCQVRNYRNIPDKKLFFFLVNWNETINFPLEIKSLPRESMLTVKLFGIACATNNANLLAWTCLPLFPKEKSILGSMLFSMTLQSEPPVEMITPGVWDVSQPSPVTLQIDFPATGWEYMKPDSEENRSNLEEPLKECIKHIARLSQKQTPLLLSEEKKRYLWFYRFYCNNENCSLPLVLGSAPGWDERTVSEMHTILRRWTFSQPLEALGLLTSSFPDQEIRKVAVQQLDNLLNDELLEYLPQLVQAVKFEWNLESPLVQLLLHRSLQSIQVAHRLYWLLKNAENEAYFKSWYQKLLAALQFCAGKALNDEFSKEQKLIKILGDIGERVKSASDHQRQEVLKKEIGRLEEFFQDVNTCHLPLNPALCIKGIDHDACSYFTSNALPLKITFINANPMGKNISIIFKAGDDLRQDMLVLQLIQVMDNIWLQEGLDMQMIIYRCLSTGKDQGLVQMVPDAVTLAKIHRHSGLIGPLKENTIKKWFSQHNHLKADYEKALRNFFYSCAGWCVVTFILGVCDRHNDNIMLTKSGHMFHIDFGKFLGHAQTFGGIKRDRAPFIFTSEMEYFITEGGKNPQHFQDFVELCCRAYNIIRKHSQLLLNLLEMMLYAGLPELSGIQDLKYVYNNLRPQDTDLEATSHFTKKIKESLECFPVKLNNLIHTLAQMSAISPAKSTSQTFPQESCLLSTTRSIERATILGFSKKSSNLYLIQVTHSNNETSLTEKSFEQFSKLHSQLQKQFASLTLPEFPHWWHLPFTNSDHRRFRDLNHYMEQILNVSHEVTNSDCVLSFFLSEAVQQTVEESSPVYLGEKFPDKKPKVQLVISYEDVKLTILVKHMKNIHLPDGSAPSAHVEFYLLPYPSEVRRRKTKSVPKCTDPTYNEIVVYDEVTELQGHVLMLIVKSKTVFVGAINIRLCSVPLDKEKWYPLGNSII
Chain of SBK1 (human) (Q52WX2 whole entry, looked up): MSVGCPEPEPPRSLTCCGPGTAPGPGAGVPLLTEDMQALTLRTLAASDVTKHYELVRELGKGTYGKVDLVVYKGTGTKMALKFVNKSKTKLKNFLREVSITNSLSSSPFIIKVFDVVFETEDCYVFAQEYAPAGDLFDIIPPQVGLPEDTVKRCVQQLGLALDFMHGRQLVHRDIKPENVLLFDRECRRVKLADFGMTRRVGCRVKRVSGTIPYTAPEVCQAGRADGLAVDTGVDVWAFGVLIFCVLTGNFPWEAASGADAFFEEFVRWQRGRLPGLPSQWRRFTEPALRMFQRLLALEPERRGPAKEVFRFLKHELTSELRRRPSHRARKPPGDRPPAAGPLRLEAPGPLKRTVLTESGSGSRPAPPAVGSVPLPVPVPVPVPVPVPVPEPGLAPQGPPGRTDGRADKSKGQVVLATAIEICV

In the case of `CN(C)C/C=C/C(=O)Nc1cccc(C(=O)Nc2ccc(Nc3nccc(-c4c(-c5ccccc5)nn5ccccc45)n3)cc2)c1`, the IC50 (GSK3B (human)) is reported as 32 nM, the IC50 (MAP3K7 (human)) is reported as 351 nM and the IC50 (MAPK8 (human)) is reported as 39 nM. It also gave a kinase still bound, per cent of control (BRAF (human)) of 43%, a kinase still bound, per cent of control (CAMK2B (human)) of 100% and a kinase still bound, per cent of control (CAMKK2 (human)) of 100%. It also gave a kinase still bound, per cent of control (CDC42BPA (human)) of 13%, a kinase still bound, per cent of control (CDK2 (human)) of 100% and a kinase still bound, per cent of control (CDK4 CCND1 (human)) of 79%. The kinase still bound, per cent of control (CDKL3 (human)) was 100%, the kinase still bound, per cent of control (CLK1 (human)) was 95% and the kinase still bound, per cent of control (DAPK3 (human)) was 93%. For the same compound, the kinase still bound, per cent of control (DCLK1 (human)) was 93%, the kinase still bound, per cent of control (EGFR (human)) was 1.8% and the kinase still bound, per cent of control [1] was 1.8%. For the same compound, the kinase still bound, per cent of control [2] was 0.8%, the kinase still bound, per cent of control [3] was 11% and the kinase still bound, per cent of control (EPHA7 (human)) was 100%. The kinase still bound, per cent of control (ERBB3 (human)) was 43%, the kinase still bound, per cent of control (FES (human)) was 100% and the kinase still bound, per cent of control (INSRR (human)) was 97%. For the same compound, the kinase still bound, per cent of control [4] was 79%, the kinase still bound, per cent of control [5] was 71% and the kinase still bound, per cent of control (MAK (human)) was 100%. The kinase still bound, per cent of control (MAP2K2 (human)) was 88%, the kinase still bound, per cent of control (MAP2K5 (human)) was 23% and the kinase still bound, per cent of control (MAP4K3 (human)) was 59%. The kinase still bound, per cent of control (MAPK14 (human)) was 2.1%, the kinase still bound, per cent of control (MET (human)) was 55% and the kinase still bound, per cent of control (MST4 (human)) was 85%. For the same compound, the kinase still bound, per cent of control (PDGFRA (human)) was 4.4%, the kinase still bound, per cent of control (PIK3C2G (human)) was 100% and the kinase still bound, per cent of control (PIP4K2B (human)) was 100%. It also gave a kinase still bound, per cent of control (PRKAA2 (human)) of 90%, a kinase still bound, per cent of control (ROCK2 (human)) of 75% and a kinase still bound, per cent of control (RPS6KA1 KD1 (human)) of 100%. It also gave a kinase still bound, per cent of control (SBK1 (human)) of 92%, a kinase still bound, per cent of control (STK36 (human)) of 2.2% and a kinase still bound, per cent of control (TNK1 (human)) of 100%. It also gave a kinase still bound, per cent of control (TNNI3K (human)) of 100%, a kinase still bound, per cent of control (TXK (human)) of 24% and a kinase still bound, per cent of control (ULK2 (human)) of 100%.
Compound `CN(C)C/C=C/C(=O)Nc1cccc(C(=O)Nc2ccc(Nc3nccc(/C(C#N)=C4\Nc5ccccc5S4)n3)cc2)c1` has an IC50 (GSK3B (human)) of 84 nM, an IC50 (MAP3K7 (human)) of 866 nM and an IC50 (MAPK8 (human)) of 327 nM. For the same compound, the kinase still bound, per cent of control (CAMK2B (human)) was 100%, the kinase still bound, per cent of control (CAMKK2 (human)) was 100% and the kinase still bound, per cent of control (CDC42BPA (human)) was 98%. It also gave a kinase still bound, per cent of control (CDK2 (human)) of 100%, a kinase still bound, per cent of control (CDK4 CCND1 (human)) of 100% and a kinase still bound, per cent of control (CDKL3 (human)) of 100%. For the same compound, the kinase still bound, per cent of control (CLK1 (human)) was 42%, the kinase still bound, per cent of control (DAPK3 (human)) was 100% and the kinase still bound, per cent of control (DCLK1 (human)) was 100%. The kinase still bound, per cent of control (EGFR (human)) was 81%, the kinase still bound, per cent of control [1] was 100% and the kinase still bound, per cent of control [2] was 96%. It also gave a kinase still bound, per cent of control [3] of 80%, a kinase still bound, per cent of control (EPHA7 (human)) of 100% and a kinase still bound, per cent of control (ERBB3 (human)) of 74%. It also gave a kinase still bound, per cent of control (FES (human)) of 100%, a kinase still bound, per cent of control (INSRR (human)) of 87% and a kinase still bound, per cent of control [4] of 81%. For the same compound, the kinase still bound, per cent of control [5] was 100%, the kinase still bound, per cent of control (MAK (human)) was 93% and the kinase still bound, per cent of control (MAP2K2 (human)) was 100%. It also gave a kinase still bound, per cent of control (MAP2K5 (human)) of 100%, a kinase still bound, per cent of control (MAP4K3 (human)) of 91% and a kinase still bound, per cent of control (MAPK14 (human)) of 95%. It also gave a kinase still bound, per cent of control (MET (human)) of 92%, a kinase still bound, per cent of control (MST4 (human)) of 100% and a kinase still bound, per cent of control (PDGFRA (human)) of 100%. The kinase still bound, per cent of control (PIK3C2G (human)) was 100%, the kinase still bound, per cent of control (PIP4K2B (human)) was 81% and the kinase still bound, per cent of control (PRKAA2 (human)) was 100%. The kinase still bound, per cent of control (ROCK2 (human)) was 100%, the kinase still bound, per cent of control (RPS6KA1 KD1 (human)) was 100% and the kinase still bound, per cent of control (SBK1 (human)) was 100%. For the same compound, the kinase still bound, per cent of control (STK36 (human)) was 95%, the kinase still bound, per cent of control (TNK1 (human)) was 15% and the kinase still bound, per cent of control (TNNI3K (human)) was 100%. For the same compound, the kinase still bound, per cent of control (TXK (human)) was 100% and the kinase still bound, per cent of control (ULK2 (human)) was 73%.
`CN(C)C/C=C/C(=O)Nc1cccc(C(=O)Nc2ccc(Nc3nccc(-c4cccnc4)n3)cc2)c1` showed an IC50 (GSK3B (human)) of 933 nM, an IC50 (MAP3K7 (human)) of 833 nM and an IC50 (MAPK8 (human)) of 41 nM. For the same compound, the kinase still bound, per cent of control (BRAF (human)) was 95%, the kinase still bound, per cent of control (CAMK2B (human)) was 82% and the kinase still bound, per cent of control (CAMKK2 (human)) was 40%. The kinase still bound, per cent of control (CDC42BPA (human)) was 100%, the kinase still bound, per cent of control (CDK2 (human)) was 100% and the kinase still bound, per cent of control (CDK4 CCND1 (human)) was 61%. For the same compound, the kinase still bound, per cent of control (CDKL3 (human)) was 41%, the kinase still bound, per cent of control (CLK1 (human)) was 12% and the kinase still bound, per cent of control (DAPK3 (human)) was 65%. For the same compound, the kinase still bound, per cent of control (DCLK1 (human)) was 96%, the kinase still bound, per cent of control (EGFR (human)) was 95% and the kinase still bound, per cent of control [1] was 78%. The kinase still bound, per cent of control [2] was 91%, the kinase still bound, per cent of control [3] was 91% and the kinase still bound, per cent of control (EPHA7 (human)) was 86%. It also gave a kinase still bound, per cent of control (ERBB3 (human)) of 100%, a kinase still bound, per cent of control (FES (human)) of 100% and a kinase still bound, per cent of control (INSRR (human)) of 100%. For the same compound, the kinase still bound, per cent of control [4] was 8.6%, the kinase still bound, per cent of control [5] was 78% and the kinase still bound, per cent of control (MAK (human)) was 5.6%. It also gave a kinase still bound, per cent of control (MAP2K2 (human)) of 58%, a kinase still bound, per cent of control (MAP2K5 (human)) of 6.8% and a kinase still bound, per cent of control (MAP4K3 (human)) of 38%. For the same compound, the kinase still bound, per cent of control (MAPK14 (human)) was 83%, the kinase still bound, per cent of control (MET (human)) was 100% and the kinase still bound, per cent of control (MST4 (human)) was 34%. The kinase still bound, per cent of control (PDGFRA (human)) was 67%, the kinase still bound, per cent of control (PIK3C2G (human)) was 100% and the kinase still bound, per cent of control (PIP4K2B (human)) was 18%. For the same compound, the kinase still bound, per cent of control (PRKAA2 (human)) was 81%, the kinase still bound, per cent of control (ROCK2 (human)) was 16% and the kinase still bound, per cent of control (RPS6KA1 KD1 (human)) was 100%. It also gave a kinase still bound, per cent of control (SBK1 (human)) of 66%, a kinase still bound, per cent of control (STK36 (human)) of 30% and a kinase still bound, per cent of control (TNK1 (human)) of 67%. It also gave a kinase still bound, per cent of control (TNNI3K (human)) of 77%, a kinase still bound, per cent of control (TXK (human)) of 83% and a kinase still bound, per cent of control (ULK2 (human)) of 86%.
